Results from patent US11407711B2, “Benzamide compound and use thereof” (METISA BIOTECHNOLOGY CO., LTD., priority 2018, dated 2022).
Like-named read-outs stand apart in the source and are kept apart here.

Key:
Assay type in all cases: in vivo
Plutella xylostella = assay: Insecticidal activity against Plutella xylostella (Airbrush spray on cabbage leaf discs); details: for Fatality rate (%, 3 d after administration) 0.05 mg/L: Table 74, 0.05 mg/L; for pest or weed control at 0.5 µg/mL / pest or weed control at 1 µg/mL / pest or weed control at 10 µg/mL: Plutella xylostella, foliar, 72 h; for pest or weed control at 10 µg/mL: Table 71, 10 mg/L, read-out: Fatality rate (%, 3 d after administration) 10 mg/L
Protocol: (§1) The compound to be tested was dissolved by a mixed solvent of acetone/methanol (1:1), and then diluted by water containing 0.1% (wt) Tween 80 to the required concentration.
(§2) An Airbrush spray method was adopted for the determination of the activity, with armyworm, Plutella xylostella and Chilo suppressalis as targets.
Determination method: cabbage blades were punched into 2 cm (diameter) leaf discs by a puncher; with the pressure of Airbrush spray being 10 psi (about 0.7 kg/cm^2), both sides of each leaf disc were sprayed with the amount of 0.5 ml. After dried in the shade, each leaf disc was inoculated with 10 3rd-instar larvaes, 3 repeats for each leaf disc. And then, the treated leaf discs were put into an observation room (25° C., relative humidity: 60-70%) for cultivation; the number of the survivals was surveyed 1 d, 2 d and 3 d after administration, and then the death rate was calculated.

Chilo suppressalis = assay: Insecticidal activity against Chilo suppressalis (spray on rice seedlings, stems fed to larvae); details: for pest or weed control at 1 µg/mL / pest or weed control at 4 µg/mL / pest or weed control at 40 µg/mL: Chilo suppressalis, 72 h, survivals surveyed 3 d after administration, read-out: fatality rate against Chilo suppressalis; for pest or weed control at 1 µg/mL: 1 mg/L; for pest or weed control at 4 µg/mL: 4 mg/L; for pest or weed control at 40 µg/mL: 40 mg/L
Protocol: as §1, §2
Determination method: 1) preparation of rice seedlings: rice was cultivated in small plastic cups (diameter: 4.5 cm and height: 4 cm) at a constant temperature room (temperature: 26-28° C., relative humidity: 60-80% around and illumination: 16 hL:8 hD), after the rice grew to a 4-5 leaf stage, vigorous and uniform-growth rice seedlings were selected and treated with an insecticide, 3 repeats for each treatment. 2) Preparation of pests for test: 3rd-instar larvaes of Chilo suppressalis fed continuously in the room. 3) Inoculation of pests on rice stems by spray. The whole plants of the rice seedlings were sprayed by a spray method uniformly, with the dose of 15 ml for each treatment. The blank control was treated first, and the above operation was repeated in an order of lower to higher test concentration. After sprayed, rice seedlings were placed in the shade to dry the insecticide liquor, and then stalks about 5 cm above the basal part of the stems were cut to be fed to the pests for test. Glass petri dishes (diameter: […]) were prepared, cushioned by filter paper at the bottom thereof, and subjected to water addition for moisturizing; about 20 pieces of rice stems were put in each dish and inoculated with 10 larvaes; then the petri dishes were closed by non-woven fabrics and placed in a constant temperature room for culture. The number of survivals was surveyed 3 d after administration.

armyworm = assay: Insecticidal activity against armyworm (Airbrush spray on maize blade segments); details: 72 h, 3 d after administration, 3rd-instar larvae, read-out: fatality rate against armyworm; for pest or weed control at 0.05 µg/mL: 0.05 mg/L; for pest or weed control at 0.1 µg/mL: 0.1 mg/L; for pest or weed control at 0.5 µg/mL: 0.5 mg/L
Protocol: as §1, §2
Determination method: maize blades were cut into 2 cm (length) segments; with the pressure of Airbrush spray being 10 psi (about 0.7 kg/cm^2), both sides of each blade segment were sprayed with the amount of 0.5 ml. After dried in the shade, each segment was inoculated with 10 3rd-instar larvaes, 3 repeats for each segment. And then, the treated segments were put into an observation room (25° C., relative humidity: 60-70%) for cultivation; the number of the survivals was surveyed 1 d, 2 d and 3 d after administration, and then the death rate was calculated.

[1] = Table 73, 0.5 mg/L, 3 d after administration
[2] = Table 73, 1 mg/L, 3 d after administration
[3] = Table 74, 0.5 mg/L, 3 d after administration
[4] = Table 73, 0.5 mg/L, 3 d after administration, read-out: Fatality rate (%, 3 d after administration) 0.5 mg/L
[5] = Table 73, 1 mg/L, 3 d after administration, read-out: Fatality rate (%, 3 d after administration) 1 mg/L
[6] = Table 75, fast-acting efficacy, dose 0.5 mg/L
[7] = Table 76, fast-acting efficacy, dose 0.05 mg/L
[8] = 0.5 mg/L, 3 d after administration, read-out: fatality rate against Plutella xylostella
[9] = 1 mg/L, 3 d after administration, read-out: fatality rate against Plutella xylostella

SMILES	Fatality rate (%, 3 d after administration) 0.05 mg/L (Plutella xylostella; 3 d after administration) [%]	pest or weed control at 0.5 µg/mL (Plutella xylostella; [4]) [%]	pest or weed control at 1 µg/mL (Plutella xylostella; [5]) [%]	pest or weed control at 1 µg/mL (Chilo suppressalis) [%]	pest or weed control at 4 µg/mL (Chilo suppressalis) [%]	pest or weed control at 40 µg/mL (Chilo suppressalis) [%]	pest or weed control at 0.05 µg/mL (armyworm) [%]	pest or weed control at 0.1 µg/mL (armyworm) [%]	pest or weed control at 0.5 µg/mL (armyworm) [%]	pest or weed control at 0.5 µg/mL (Plutella xylostella; [8]) [%]	pest or weed control at 1 µg/mL (Plutella xylostella; [9]) [%]	pest or weed control at 10 µg/mL (Plutella xylostella; 3 d after administration) [%]	other results
NC(=O)CCN(C(=O)c1ccccc1)c1cccc(C(=O)N(CCC(N)=O)c2c(Br)cc(C(F)(C(F)(F)F)C(F)(F)F)cc2C(F)(F)F)c1F [CK10, reference compound]	–	–	–	–	–	–	–	–	–	–	–	–	Fatality rate (%, 3 d after administration) 0.5 mg/L (Plutella xylostella; [1]): 0%; Fatality rate (%, 3 d after administration) 1 mg/L (Plutella xylostella; [2]): 55%
NC(=O)CCN(C(=O)c1ccccc1)c1cccc(C(=O)N(CCC(N)=O)c2c(Br)cc(C(F)(C(F)(F)F)C(F)(F)F)cc2C(F)(F)F)c1F [CK11, reference compound]	0	–	–	–	–	–	–	–	–	–	–	–	Fatality rate (%, 3 d after administration) 0.5 mg/L (Plutella xylostella; [3]): 75%
NC(=O)CCN(C(=O)c1ccccc1)c1cccc(C(=O)N(CCC(N)=O)c2c(Br)cc(C(F)(C(F)(F)F)C(F)(F)F)cc2C(F)(F)F)c1F [CK12, reference compound]	–	–	–	–	–	–	–	–	–	–	–	–	Fatality rate (%, 3 d after administration) 1 mg/L (Plutella xylostella; Table 72, 1 mg/L, 3 d after administration): 0%; Fatality rate (%, 3 d after administration) 5 mg/L (Plutella xylostella; Table 72, 5 mg/L, 3 d after administration): 60%
NC(=O)CCN(C(=O)c1ccccc1)c1cccc(C(=O)N(CCC(N)=O)c2c(Br)cc(C(F)(C(F)(F)F)C(F)(F)F)cc2C(F)(F)F)c1F [CK13, reference compound]	–	–	–	–	–	–	–	–	–	–	–	–	Fatality rate (%, 3 d after administration) 0.5 mg/L (Plutella xylostella; [1]): 0%; Fatality rate (%, 3 d after administration) 1 mg/L (Plutella xylostella; [2]): 75%
NC(=O)CCN(C(=O)c1ccccc1)c1cccc(C(=O)N(CCC(N)=O)c2c(Br)cc(C(F)(C(F)(F)F)C(F)(F)F)cc2C(F)(F)F)c1F [CK14, reference compound]	0	–	–	–	–	–	–	–	–	–	–	–	Fatality rate (%, 3 d after administration) 0.5 mg/L (Plutella xylostella; [3]): 60%
O=C(Nc1cccc(C(=O)Nc2c(Br)cc(C(F)(C(F)(F)F)C(F)(F)F)cc2Br)c1F)c1ccccc1 [CK15, reference compound]	–	50	90	–	–	–	–	–	–	–	–	–	Fatality rate (%, 3 d after administration) 1.25 mg/L (Chilo suppressalis; Table 77, 1.25 mg/L, 3 d after administration): 8.6%; Fatality rate (%, 3 d after administration) 2.5 mg/L (Chilo suppressalis; Table 77, 2.5 mg/L, 3 d after administration): 22.2%; Fatality rate (%, 3 d after administration) 5 mg/L (Chilo suppressalis; Table 77, 5 mg/L, 3 d after administration): 50.3%; Fatality rate (%) 1 d after administration (Plutella xylostella; [6]): 0%; Fatality rate (%) 2 d after administration (Plutella xylostella; [6]): 30%; Fatality rate (%) 3 d after administration (Plutella xylostella; Table 75, fast-acting efficacy, dose 0.5 mg/L, 3 d after administration): 50%
CN(C(=O)c1ccccc1)c1cccc(C(=O)Nc2c(Br)cc(C(F)(C(F)(F)F)C(F)(F)F)cc2C(F)(F)F)c1F [CK16, broflanilide, reference compound]	80.8	–	–	–	–	–	–	–	–	–	–	–	Fatality rate (%, 3 d after administration) 0.625 mg/L (Chilo suppressalis; Table 78, 0.625 mg/L, 3 d after administration): 10%; Fatality rate (%, 3 d after administration) 1.25 mg/L (Chilo suppressalis; Table 78, 1.25 mg/L, 3 d after administration): 60.3%; Fatality rate (%, 3 d after administration) 2.5 mg/L (Chilo suppressalis; Table 78, 2.5 mg/L, 3 d after administration): 85.5%; pest or weed control at 0.5 µg/mL (Plutella xylostella; Table 74, 0.5 mg/L, 3 d after administration, read-out: Fatality rate (%, 3 d after administration) 0.5 mg/L): 100%; Fatality rate (%) 1 d after administration (Plutella xylostella; [7]): 0%; Fatality rate (%) 2 d after administration (Plutella xylostella; [7]): 52.5%; Fatality rate (%) 3 d after administration (Plutella xylostella; Table 76, fast-acting efficacy, dose 0.05 mg/L, 3 d after administration): 80.8%
N#CCN(C(=O)c1ccc(F)cc1)c1cccc(C(=O)Nc2c(Br)cc(C(F)(C(F)(F)F)C(F)(F)F)cc2Br)c1F [Compound 2.7]	–	100	100	≥ 90	≥ 90	≥ 90	≥ 90	≥ 90	≥ 90	≥ 90	≥ 90	100	–
N#CCN(C(=O)c1ccc(C#N)cc1)c1cccc(C(=O)Nc2c(Br)cc(C(F)(C(F)(F)F)C(F)(F)F)cc2Br)c1F [Compound 2.17]	–	100	100	≥ 90	≥ 90	≥ 90	≥ 90	≥ 90	≥ 90	≥ 90	≥ 90	100	–
N#CCN(C(=O)c1ccc(C(F)(F)F)cc1)c1cccc(C(=O)Nc2c(Br)cc(C(F)(C(F)(F)F)C(F)(F)F)cc2Br)c1F [Compound 2.43]	–	100	100	≥ 90	≥ 90	≥ 90	≥ 90	≥ 90	≥ 90	≥ 90	≥ 90	100	–
